Reference: patent publication US10100057B2, “Imidazopyrimidine and imidazotriazine derivative, and pharmaceutical composition comprising the same” (SK BIOPHARMACEUTICALS CO., LTD., priority 2016, dated 2018)

The molecules below were run against human mGluR5 receptor (Homo sapiens (Human), UniProt P41594) (assay: Calcium influx assay based on fluorescence (mGluR5 positive allosteric modulator activity)). Conditions: human mGluR5 receptor-overexpressed HEK293 cell line; L-glutamate EC20; Fluo-4, FLIPR; read-out: Human mGluR5 PAM EC50.
Protocol: Efficacy as a positive allosteric modulator (PAM) of mGluR5 of the compounds of the Examples was tested as follows:
Calcium Influx Assay Based on Fluorescence
Ca^2+ (calcium) influx assay is an experiment for measuring the activity of a positive allosteric modulator of mGluR5 receptor in which human mGluR5 receptor-overexpressed HEK293 cell line is used. The day before the experiment, cells were prepared in a cell culture medium (DMEM, 5% FBS) with the density of 80,000/well, and 100 μl of cells were dispensed into each well of a poly-D-lysine-coated 96-well plate. Cells were incubated in a 5% CO2, 37° C. incubator. The next day, the cell culture medium was removed from the plate, and 100 μl of 1× Fluo-4 calcium indicator diluted with a buffer (1× Hank's balanced salt solution, 20 mM HEPES, 2.5 mM probenecid) were added to each well and incubated at 37° C. for 1 hour. The compound stock solutions were prepared in 100% DMSO, and the compounds were serially diluted with a 1/4 dilution to 6 or 7 concentrations (final concentration was 10 μM to 10 nM). The diluted compound solutions were added to the plate with 0.1 to 0.2% of final DMSO concentration. 1 hour after the addition of Fluo-4 calcium indicator, L-glutamate (EC20 concentration) and the test compound solutions were added to the plate, and Ca^2+ reaction was then measured by FLIPR at room temperature. The activity of the compounds was standardized on the basis of the results of maximum value-minimum value of fluorescent reaction, and the activity value was calculated on the basis that no activity on glutamate EC20 is 0% and the reaction to glutamate maximum value is 100%.

human mGluR5 receptor, sequence (P41594 21-1212): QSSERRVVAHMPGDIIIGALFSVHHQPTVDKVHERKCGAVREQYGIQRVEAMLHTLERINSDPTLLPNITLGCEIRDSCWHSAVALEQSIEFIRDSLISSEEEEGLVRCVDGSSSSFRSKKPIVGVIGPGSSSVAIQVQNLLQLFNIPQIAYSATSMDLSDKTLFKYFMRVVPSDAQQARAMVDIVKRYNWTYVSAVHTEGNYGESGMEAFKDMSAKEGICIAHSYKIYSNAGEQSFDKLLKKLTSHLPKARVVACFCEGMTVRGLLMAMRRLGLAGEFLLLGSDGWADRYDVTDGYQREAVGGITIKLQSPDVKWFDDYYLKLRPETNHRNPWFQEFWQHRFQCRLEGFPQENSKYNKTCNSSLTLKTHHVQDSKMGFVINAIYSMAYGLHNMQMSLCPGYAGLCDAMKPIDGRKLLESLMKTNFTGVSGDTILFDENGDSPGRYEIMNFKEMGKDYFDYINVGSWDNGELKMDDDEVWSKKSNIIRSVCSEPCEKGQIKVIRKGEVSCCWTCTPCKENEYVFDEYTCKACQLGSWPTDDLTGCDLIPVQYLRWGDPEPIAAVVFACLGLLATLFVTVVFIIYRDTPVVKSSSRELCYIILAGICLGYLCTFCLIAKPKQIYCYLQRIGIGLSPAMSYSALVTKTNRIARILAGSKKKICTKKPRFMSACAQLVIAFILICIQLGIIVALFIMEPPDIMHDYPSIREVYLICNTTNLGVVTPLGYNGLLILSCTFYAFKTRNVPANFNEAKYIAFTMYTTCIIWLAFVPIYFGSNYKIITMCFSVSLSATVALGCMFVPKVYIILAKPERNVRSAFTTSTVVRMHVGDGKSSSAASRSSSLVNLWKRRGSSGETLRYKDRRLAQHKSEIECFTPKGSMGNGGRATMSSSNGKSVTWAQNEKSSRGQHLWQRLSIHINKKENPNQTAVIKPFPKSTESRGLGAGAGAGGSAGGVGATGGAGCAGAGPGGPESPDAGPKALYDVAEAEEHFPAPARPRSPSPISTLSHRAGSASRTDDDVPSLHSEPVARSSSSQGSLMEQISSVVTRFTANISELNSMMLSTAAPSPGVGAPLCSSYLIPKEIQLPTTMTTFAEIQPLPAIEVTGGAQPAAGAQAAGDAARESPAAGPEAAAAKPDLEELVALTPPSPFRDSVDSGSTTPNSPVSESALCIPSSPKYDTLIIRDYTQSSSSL

EC50	Compound
≤ 100 nM	Cc1cc(F)ccc1-c1cnc2nc(COc3cc(F)ccn3)cn2c1 [Example 116, 6-(4-fluoro-2-methyl-phenyl)-2-[(4-fluoro-2-pyridyl)oxymethyl)imidazo[1,2-a]pyrimidine]
≤ 100 nM	Cc1cc(F)ccc1-c1cnc2nc(COc3ccccn3)cn2n1 [Example 188, 2-(4-fluoro-2-methyl-phenyl)-6-(2-pyridyloxymethyl)imidazo[1,2-b][1,2,4]triazine]
≤ 100 nM	Cc1cc(F)ccc1-c1cnc2nc(COc3ccccc3)cn2c1 [Example 6, 6-(4-fluoro-2-methylphenyl)-2-phenoxymethylimidazo[1,2-a]pyrimidine]
≤ 100 nM	Fc1cccc(OCc2cn3cc(-c4ccc(C(F)(F)F)nc4)cnc3n2)c1 [Example 80, 2-[(3-fluorophenoxy)methyl]-6-[6-(trifluoromethyl)-3-pyridyl)imidazo[1,2-a]pyrimidine]
≤ 100 nM	Cc1ccccc1-c1cnc2nc(COc3ccccc3)cn2c1 [Example 5, 6-(2-methylphenyl)-2-phenoxymethylimidazo[1,2-a]pyrimidine]
≤ 100 nM	Fc1ccc(OCc2cn3cc(-c4ccc(F)cc4Cl)cnc3n2)cc1 [Example 67, 6-(2-chloro-4-fluoro-phenyl)-2-[(4-fluorophenoxy)methyl]imidazo[1,2-a]pyrimidine]
≤ 100 nM	Cc1ccccc1-c1cnc2nc(COc3ccnc(F)c3)cn2c1 [Example 168, 6-(2-methylphenyl)-2-(2-fluoropyridin-4-yloxymethyl)imidazo[1,2-a]pyrimidine]
≤ 100 nM	Fc1ccc(-c2cnc3nc(COc4ccccc4)cn3c2)c(F)c1 [Example 3, 6-(2,4-difluorophenyl)-2-phenoxymethylimidazo[1,2-a]pyrimidine]
≤ 100 nM	Cc1cc(F)ccc1-c1cnc2nc(COc3ccnc(F)c3)cn2c1 [Example 162, 6-(4-fluoro-2-methylphenyl)-2-(2-fluoropyridin-4-yloxymethyl)imidazo[1,2-a]pyrimidine]
≤ 100 nM	Cc1cc(-c2cnc3nc(COc4ccc(F)cc4)cn3c2)cnc1F [Example 91, 6-(6-fluoro-5-methyl-3-pyridyl)-2-[(4-fluorophenoxy)methyl]imidazo[1,2-a]pyrimidine]
≤ 100 nM	FCc1cc(F)ccc1-c1cnc2nc(COc3ccccn3)cn2c1 [Example 198, 6-[4-fluoro-2-(fluoromethyl)phenyl]-2-(2-pyridyloxymethyl)imidazo[1,2-a]pyrimidine]
≤ 100 nM	OCc1cc(F)ccc1-c1cnc2nc(COc3ccccc3)cn2c1 [Example 25, 6-(4-fluoro-2-hydroxymethylphenyl)-2-phenoxymethylimidazo[1,2-a]pyrimidine]
≤ 100 nM	Fc1ccc(-c2cnc3nc(COc4ccccn4)cn3c2)nc1 [Example 132, 6-(5-fluoro-2-pyridyl)-2-(2-pyridyloxymethyl)imidazo[1,2-a]pyrimidine]
